Values after ≈ are worked out from the molar mass of the structure shown.
Test system: S. aureus MRSA4
Experiment: MIC against S. aureus MRSA4 in vitro (broth dilution)
Format: cell-based
Conditions: Staphylococcus aureus; S. aureus MRSA4 in vitro; SAR series (Fig. 2)
Text: We synthesized 50 compounds (Fig. 2, Supplementary Table 1) using the Steglich esterification scheme[31] in the presence of a […], 1-ethyl-3-(3-dimethylaminopropyl)-carbodiimide hydrochloride (Fig. 1b). Antimicrobial activities of the compounds were examined by determining the MIC against S. aureus MRSA4 in vitro; therapeutic activities were examined using a systemic infection model of silkworms infected with S. aureus MSSA1. […]
Antimicrobial activity was assessed by determining the MIC by broth dilution assay according to our previous reports[21],[35],[36] as per the Clinical and Laboratory Standards Institute[37]. Briefly, serial dilutions of compound 5, compound 7, and positive controls were prepared in cation-adjusted Mueller-Hinton Broth (MHB, Difco, Franklin Lakes, NJ, USA), 100 µl of which was dispensed into each well of a round-bottomed 96-well plate. The final concentrations in the well ranged from 128 µg/ml to 0.0625 µg/ml. Bacteria were grown at 37 °C overnight on either Luria Bertani (tryptone 10 g/l, yeast extract 5 g/l, NaCl 10 g/l) or Tryptic Soy Broth (TSB, Difco) agar plates or sheep blood agar plates (Eiken Chemical Co. Ltd., Tokyo, Japan). Bacterial inoculum was prepared by direct suspension of the colonies in 0.9% saline, and adjusted to obtain a turbidity equivalent to a 0.5 McFarland standard using a spectrophotometer UV-1280 (Shimadzu Corp., Kyoto, Japan). The suspension was then diluted 1:20 in cation-adjusted MHB (Difco), and 10 µl of it was inoculated into each well of previously prepared 96-well plates containing compounds to obtain approximately 5 × 10^4 colony forming units/well and incubated at 37 °C for 20 h. […] Vancomycin (Wako Pure Chemicals) or norfloxacin (Sigma Aldrich, St Louis, MO, USA) were used as positive controls. Each plate contained a growth control well and a vehicle control well. The MIC was determined as the minimum concentration that inhibited the growth of the bacteria.

Row | Structure (SMILES) | MIC [µg/mL]
1 | O=C(OCc1cc(Cl)cc(Cl)c1)c1ccc([N+](=O)[O-])o1 [compound 1] | 12.5 (≈ 39.5 µM)
2 | O=C(OCc1cc(Cl)cc(Cl)c1)c1ccco1 [compound 2] | > 200
3 | O=C(OCc1cccc(Cl)c1)c1ccc([N+](=O)[O-])o1 [compound 3] | 12.5 (≈ 44.4 µM)
4 | O=C(OCc1ccccc1)c1ccc([N+](=O)[O-])o1 [compound 4] | 12.5 (≈ 50.6 µM)
5 | O=C(OCc1ccc2ccccc2c1)c1ccc([N+](=O)[O-])o1 [compound 8] | > 200
6 | O=C(NCc1cccc(Cl)c1)c1ccc([N+](=O)[O-])s1 [compound 11] | 6.3 (≈ 21.2 µM)
7 | CN(Cc1ccccc1)C(=O)c1ccc([N+](=O)[O-])s1 [compound 14] | 50 (≈ 181 µM)
8 | O=C(COc1cc(Cl)cc(Cl)c1)c1ccc([N+](=O)[O-])o1 [compound 15] | 50 (≈ 158 µM)
9 | O=C(COc1cc(Cl)cc(Cl)c1)c1ccc([N+](=O)[O-])s1 [compound 16] | 50 (≈ 151 µM)
10 | O=C(OCc1cccc(Br)c1)c1ccc([N+](=O)[O-])o1 [compound 17] | 12.5 (≈ 38.3 µM)
11 | O=C(OCc1cc(Br)cc(Br)c1)c1ccc([N+](=O)[O-])s1 [compound 21] | 6.3 (≈ 15 µM)
12 | O=C(OCc1c(Br)c(Br)c(Br)c(Br)c1Br)c1ccc([N+](=O)[O-])s1 [compound 22] | > 200
13 | O=Cc1ccc(C(=O)OCc2cc(Cl)cc(Cl)c2)s1 [compound 23] | 25 (≈ 79.3 µM)
14 | O=Cc1ccc(C(=O)OCc2cc(Br)cc(Br)c2)s1 [compound 24] | 25 (≈ 61.9 µM)
15 | O=Cc1ccc(C(=O)OCc2cc(F)cc(Cl)c2)s1 [compound 25] | 50 (≈ 167 µM)
16 | O=C(OCc1cc(Cl)cc(Cl)c1)c1ccc(Cl)s1 [compound 26] | > 200

Row | Structure (SMILES) | MIC [µg/mL]
17 | O=C(OCc1cc(Cl)cc(Cl)c1)c1ccc(Br)s1 [compound 27] | > 200
18 | O=C(OCc1cc(Cl)cc(Cl)c1)c1cc(Br)c(Br)s1 [compound 28] | > 200
19 | Cc1ccc(C(=O)OCc2cc(Cl)cc(Cl)c2)s1 [compound 31] | > 200
20 | O=C(OCc1cc(Cl)cc(Cl)c1)c1cccc([N+](=O)[O-])n1 [compound 33] | > 400
21 | CC(=O)c1ccc(C(=O)OCc2cc(Cl)cc(Cl)c2)s1 [compound 34] | > 400
22 | O=C(OCc1cc(Cl)cc(Cl)c1)c1csc([N+](=O)[O-])c1 [compound 36] | > 400
23 | O=C(OCc1c(F)cccc1Cl)c1ccc([N+](=O)[O-])s1 [compound 44] | 6.3 (≈ 20 µM)
24 | COc1cc(COC(=O)c2ccc([N+](=O)[O-])s2)cc(OC)c1 [compound 49] | > 400
25 | O=C(OCc1cc2c(cc1Cl)OCO2)c1ccc([N+](=O)[O-])s1 [compound 50] | 3.1 (≈ 9.07 µM)
26 | CS(=O)(=O)c1ccc(COC(=O)c2ccc([N+](=O)[O-])s2)cc1 [compound 51] | > 400
27 | O=C(NCc1cc(Cl)cc(Cl)c1)c1ccc([N+](=O)[O-])s1 [compound 52] | 25 (≈ 75.5 µM)
28 | Cc1cc(C)cc(COC(=O)c2ccc([N+](=O)[O-])s2)c1 [compound 53] | 6.3 (≈ 21.6 µM)
29 | CSc1ccc(COC(=O)c2ccc([N+](=O)[O-])s2)cc1 [compound 54] | 6.3 (≈ 20.4 µM)
30 | CN(C)c1cccc(COC(=O)c2ccc([N+](=O)[O-])s2)c1 [compound 55] | 25 (≈ 81.6 µM)
31 | O=C(OCc1ccc(OC(F)(F)F)cc1)c1ccc([N+](=O)[O-])s1 [compound 57] | 6.3 (≈ 18.1 µM)

More lines, in order of falling MIC, values ahead:

Row | MIC [µg/mL] | Structure (SMILES)
32 | 3.1 (≈ 11 µM) | O=C(NCc1cccc(Cl)c1)c1ccc([N+](=O)[O-])o1 [compound 10]
33 | 3.1 (≈ 9.33 µM) | O=C(OCc1ccc(Cl)cc1Cl)c1ccc([N+](=O)[O-])s1 [compound 39]
34 | 3.1 (≈ 9.33 µM) | O=C(OCc1c(Cl)cccc1Cl)c1ccc([N+](=O)[O-])s1 [compound 42]
35 | 3.1 (≈ 9.33 µM) | O=C(OCc1cc(Cl)ccc1Cl)c1ccc([N+](=O)[O-])s1 [compound 43]
36 | 3.1 (≈ 10.4 µM) | O=C(OCc1cc(F)cc(F)c1)c1ccc([N+](=O)[O-])s1 [compound 46]
37 | 3.1 (≈ 11.2 µM) | Cc1ccc(COC(=O)c2ccc([N+](=O)[O-])s2)cc1 [compound 47]
38 | 3.1 (≈ 10.4 µM) | O=C(OCc1ccc(Cl)cc1)c1ccc([N+](=O)[O-])s1 [compound 48]
39 | 1.6 (≈ 5.11 µM) | O=C(OCc1ccc2ccccc2c1)c1ccc([N+](=O)[O-])s1 [compound 9]
40 | 1.6 (≈ 4.68 µM) | O=C(OCc1cccc(Br)c1)c1ccc([N+](=O)[O-])s1 [compound 18]
41 | 1.6 (≈ 5.06 µM) | O=C(OCc1cc(Cl)cc(Cl)c1)c1cc([N+](=O)[O-])n[nH]1 [compound 30]
42 | 1.6 (≈ 4.62 µM) | CC(OC(=O)c1ccc([N+](=O)[O-])s1)c1ccc(Cl)cc1Cl (centres unmarked) [compound 40]
43 | 1.6 (≈ 4.36 µM) | O=C(OCc1c(Cl)cc(Cl)cc1Cl)c1ccc([N+](=O)[O-])s1 [compound 41]
44 | 1.6 (≈ 4.85 µM) | Cc1ccc(Cl)c(COC(=O)c2ccc([N+](=O)[O-])s2)c1F [compound 45]
45 | 0.5 (≈ 1.68 µM) | O=C(OCc1cccc(Cl)c1)c1ccc([N+](=O)[O-])s1 [compound 6]
46 | 0.4 (≈ 1.42 µM) | O=C(OCc1cccc(F)c1)c1ccc([N+](=O)[O-])s1 [compound 19]
47 | 0.4 (≈ 1.27 µM) | O=C(OCc1cc(F)cc(Cl)c1)c1ccc([N+](=O)[O-])s1 [compound 20]

Test system: S. aureus MSSA1
Experiment: Silkworm systemic infection model, therapeutic activity (ED50)
Format: in vivo, Staphylococcus aureus
Conditions: S. aureus-infected silkworms
Text: We synthesized 50 compounds (Fig. 2, Supplementary Table 1) using the Steglich esterification scheme[31] in the presence of a […], 1-ethyl-3-(3-dimethylaminopropyl)-carbodiimide hydrochloride (Fig. 1b). Antimicrobial activities of the compounds were examined by determining the MIC against S. aureus MRSA4 in vitro; therapeutic activities were examined using a systemic infection model of silkworms infected with S. aureus MSSA1.
A total of 108,373 compounds from the chemical library of the Drug Discovery Initiative at the University of Tokyo were screened for antibacterial activity against S. aureus strain MRSA4 as previously reported. Those compounds that inhibited the growth of MRSA4 at 100 µM were further evaluated for their therapeutic effects in silkworms infected with S. aureus strain MSSA1 according to previously reported studies[17],[21].

Row | Structure (SMILES) | survival of the S. aureus-infected silkworms
48 | O=C(OCc1cc(Cl)cc(Cl)c1)c1ccc([N+](=O)[O-])o1 [compound 1] | slightly prolonged the survival

Same assay, conditions: Staphylococcus aureus; silkworms infected with S. aureus MSSA1 (Fig. 2); read-out: ED50

Row | Structure (SMILES) | ED50 [mg/kg]
49 | O=C(OCc1cc(Cl)cc(Cl)c1)c1ccc([N+](=O)[O-])o1 [compound 1] | > 95
50 | O=C(OCc1cccc(Cl)c1)c1ccc([N+](=O)[O-])o1 [compound 3] | > 87
51 | O=C(OCc1ccccc1)c1ccc([N+](=O)[O-])o1 [compound 4] | > 95
52 | O=C(OCc1cccc(Cl)c1)c1ccc([N+](=O)[O-])s1 [compound 6] | 65
53 | O=C(OCc1ccc2ccccc2c1)c1ccc([N+](=O)[O-])o1 [compound 8] | > 100
54 | O=C(OCc1ccc2ccccc2c1)c1ccc([N+](=O)[O-])s1 [compound 9] | > 105
55 | O=C(NCc1cccc(Cl)c1)c1ccc([N+](=O)[O-])o1 [compound 10] | > 105
56 | O=C(NCc1cccc(Cl)c1)c1ccc([N+](=O)[O-])s1 [compound 11] | > 170
57 | CN(Cc1ccccc1)C(=O)c1ccc([N+](=O)[O-])s1 [compound 14] | > 210
58 | O=C(COc1cc(Cl)cc(Cl)c1)c1ccc([N+](=O)[O-])o1 [compound 15] | > 105
59 | O=C(COc1cc(Cl)cc(Cl)c1)c1ccc([N+](=O)[O-])s1 [compound 16] | > 220
60 | O=C(OCc1cccc(Br)c1)c1ccc([N+](=O)[O-])o1 [compound 17] | > 220
61 | O=C(OCc1cccc(Br)c1)c1ccc([N+](=O)[O-])s1 [compound 18] | 53
62 | O=C(OCc1cccc(F)c1)c1ccc([N+](=O)[O-])s1 [compound 19] | > 87
63 | O=C(OCc1cc(F)cc(Cl)c1)c1ccc([N+](=O)[O-])s1 [compound 20] | 17
64 | O=C(OCc1cc(Br)cc(Br)c1)c1ccc([N+](=O)[O-])s1 [compound 21] | > 100
65 | O=Cc1ccc(C(=O)OCc2cc(Cl)cc(Cl)c2)s1 [compound 23] | > 100
66 | O=Cc1ccc(C(=O)OCc2cc(Br)cc(Br)c2)s1 [compound 24] | > 100

Row | Structure (SMILES) | ED50 [mg/kg]
67 | O=Cc1ccc(C(=O)OCc2cc(F)cc(Cl)c2)s1 [compound 25] | > 100
68 | O=C(OCc1cc(Cl)cc(Cl)c1)c1cc(Br)c(Br)s1 [compound 28] | > 100
69 | O=C(OCc1cc(Cl)cc(Cl)c1)c1cc([N+](=O)[O-])n[nH]1 [compound 30] | > 210
70 | O=C(OCc1ccc(Cl)cc1Cl)c1ccc([N+](=O)[O-])s1 [compound 39] | 28
71 | CC(OC(=O)c1ccc([N+](=O)[O-])s1)c1ccc(Cl)cc1Cl (centres unmarked) [compound 40] | > 160
72 | O=C(OCc1c(Cl)cc(Cl)cc1Cl)c1ccc([N+](=O)[O-])s1 [compound 41] | 32
73 | O=C(OCc1c(Cl)cccc1Cl)c1ccc([N+](=O)[O-])s1 [compound 42] | > 180
74 | O=C(OCc1cc(Cl)ccc1Cl)c1ccc([N+](=O)[O-])s1 [compound 43] | > 180
75 | O=C(OCc1c(F)cccc1Cl)c1ccc([N+](=O)[O-])s1 [compound 44] | > 180
76 | Cc1ccc(Cl)c(COC(=O)c2ccc([N+](=O)[O-])s2)c1F [compound 45] | 82
77 | O=C(OCc1cc(F)cc(F)c1)c1ccc([N+](=O)[O-])s1 [compound 46] | 81
78 | Cc1ccc(COC(=O)c2ccc([N+](=O)[O-])s2)cc1 [compound 47] | 33
79 | O=C(OCc1ccc(Cl)cc1)c1ccc([N+](=O)[O-])s1 [compound 48] | 58
80 | O=C(OCc1cc2c(cc1Cl)OCO2)c1ccc([N+](=O)[O-])s1 [compound 50] | > 240
81 | O=C(NCc1cc(Cl)cc(Cl)c1)c1ccc([N+](=O)[O-])s1 [compound 52] | > 190
82 | Cc1cc(C)cc(COC(=O)c2ccc([N+](=O)[O-])s2)c1 [compound 53] | > 210
83 | CSc1ccc(COC(=O)c2ccc([N+](=O)[O-])s2)cc1 [compound 54] | 43

— publication PMC5785531, “Pharmacokinetic parameters explain the therapeutic activity of antimicrobial agents in a silkworm infection model” (Scientific Reports, 2018)
